Experimental data from patent US20260240999A1, “METHODS FOR EX VIVO ENRICHMENT AND EXPANSION OF TUMOR REACTIVE T CELLS AND RELATED COMPOSITIONS THEREOF” (H. LEE MOFFITT CANCER CENTER AND RESEARCH INSTITUTE, INC., priority 2022, published 2026).
“Also recorded” adds a separate entry of the source. Residues, ends and D or L forms follow the SMILES beside them. *: point of attachment. Cbz = O=C(OCc1ccccc1)*; CH2F = FC*

Key:
[1] = tested on: PBMC from two healthy donors; experiment: Checkpoint modulators and costimulatory agonist antibodies on T cell phenotype; type: cell-based, human
Experimental: Cells were then seeded into a 24-well gas permeable cell culture plate at a density of 5.0×10^5 cells/cm^2. Cells were activated for 48 hours using 50 ng/ml OKT3, a human anti-CD3 monoclonal antibody, and were additionally treated with agents as described below. Following 48 hours in culture, cells were analyzed for phenotype.
Cells were divided into 6 treatment groups, as follows: Ipilimumab (anti-CTLA4), Pembrolizumab (anti-PD1), Tavolixizumab (anti-TNFRSF4), Urelumab (anti-CD137), and Varlilumab (anti-CD27), as well as a no added agent control. For all test groups, cells in each treatment group were cultured in the presence of the monoclonal antibodies at 0.5, 1, 10, or 20 μg/mL.
None of the tested antibodies appeared to affect the memory differentiation state of the T cells. T cell phenotype was assessed for CD4+ and CD8+ cells independently via flow cytometry for markers of activation OX40, 41BB, CD107a, and PD1. Results are shown in FIG. 38 (CD3+), FIG. 39 (CD4+) and FIG. 40 (CD8+).

[2] = tested on: previously expanded human T cells from three healthy donors; experiment: Effect of T cell adjuvants on T cell viability (total viable CD3+ cell count); type: cell-based; conditions: for viable cell counts: vs DMSO treatment control, irrespective of activation status, 6 days
Experimental: Cells were expanded from PBMC derived from Ficoll gradient separation from three healthy donor's apheresis material. […] Because the studies were carried out in healthy donors, stimulation of the T cells was carried out with anti-CD3 (OKT3) stimulation in order to mimic conditions present in the tumor microenvironment (TME).
Cells were next seeded into gas permeable 100M culture vessels and expanded for 7-14 days to achieve a large bank of T cells, and cryopreserved. […] Half of wells were additionally supplemented with 50 ng/mL OKT3, a human anti-CD3 monoclonal antibody. In total, 15 test adjuvant agents were tested for their impact on cell viability in the presence and absence of anti-CD3 activation (see Table E3). Cells were cultured for 6 days total, including a 50% medium exchange on culture day 3, and monitored for total viable CD3+ cell count.

[3] = tested on: previously expanded human T cells from three healthy donors; experiment: Cytokines, modulators and agonist antibodies with IL-2 on T cell number and memory phenotype; type: cell-based
Experimental: PBMC from three healthy donors were activated, expanded, and cryopreserved as described in Example 11. […] As previously described, stimulation of the healthy donor T cells prior to cryopreservation were carried out with anti-CD3 (OKT3) stimulation in order to mimic conditions present in the tumor microenvironment (TME).
Cells were next seeded into gas permeable 100M culture vessels and expanded for 7-14 days to achieve a large bank of T cells, and cryopreserved.
Cells were maintained in culture for 6 days, with a 50% medium exchange occurring at 3 days post culture initiation.
At the end of the culture period for all culture conditions, cells were assessed for cell count and sub-phenotypes of naïve and central memory T cells by flow cytometry by staining with CD45RA and CCR7 (naïve, CD45RA+ CCR7+; “central” memory, CD45RA-CCR7+).

[4] = tested on: PBMC from two healthy donors; experiment: T cell expansion with Fas ligand or caspase inhibition, anti-CD3/anti-CD28 stimulation; type: cell-based, human; conditions: continuous anti-CD3/anti-CD28 activation
Experimental: Cells were then seeded into a 24-well gas permeable cell culture plate at a density of 1.5×10^5 cells/mL (5.0×10^5 cells/cm^2).
Culture wells were assigned to one of two treatment groups, transient or continuous activation. For transient activation, anti-CD3/anti-CD28 paramagnetic beads (Dyanbeads™) were added to the culture media at a ratio of 1 bead per cell starting on culture day 0, and then were removed during media exchange on day 2. For continuous activation, anti-CD3/anti-CD28 paramagnetic beads (Dyanbeads™) were added to the culture media at a ratio of 1 bead per cell starting on culture day 0, and then added again on Day 4, and again on Day 6 at a ratio of 1 bead per cell. The anti-CD3/anti-CD28 paramagnetic beads were not removed on Day 2, 4 or 6.
For both the continuous and transient activation, culture wells were assigned to one of five treatment groups as described above for 10 conditions total per donor.
Cell counts and viability were monitored every other day. When cells reached 3×10^6 cells/ml, 1.5×10^6 cells were sub-cultured into a new well of a 24-well gas permeable culture plate with 7 mL final volume of medium and the culture continued as described above.

[5] = tested on: CRC tumor fragment and SCS cultures; experiment: Caspase inhibition in tumor processing; type: cell-based, human
Experimental: Half of cultures contained media additionally supplemented with 2 μM of pan-caspase inhibitor Z-VAD-FMK which was replenished at each media exchange. Cultures were incubated at about 37° C. for a minimum of 18 days with a 50% medium exchange occurring every 2-3 days following culture day 5. Cell counts were performed on day 5 and at each medium exchange using the NC-200 Automated Cell Counter (ChemoMetec).

[6] = tested on: PBMC from three healthy donors; experiment: T cell expansion with Fas ligand or caspase inhibition, anti-CD3 stimulation; type: cell-based, human; conditions: OKT3 activation
Experimental: Cells were then seeded into a 24-well gas permeable cell culture plate at a density of 2.14×10^5 cells/mL (7.5×10^5 cells/cm^2). Cells were activated for 48 hours using 50 ng/ml OKT3, a human anti-CD3 monoclonal antibody, and were additionally treated with agents as described below.
Culture wells were assigned to one of five treatment groups, as follows: (1) a no inhibitor culture control which contained only cellular media as described with no additional apoptotic modulator; (2) 2 μM of the pan-caspase inhibitor Z-VAD-FMK added to the media only on culture day 0 (transient); (3) 2 μM of the pan-caspase inhibitor Z-VAD-FMK added on culture day 0 and additionally replenished at the same concentration with each media exchange (continuous); (4). 500 ng/ml of Fas ligand (FasL) blocking antibody NOK-1 (BioLegend) added to the culture media only on day 0 (transient); or (5) 500 ng/ml of Fas ligand (FasL) blocking antibody NOK-1 (BioLegend) added to the culture media […] replenished each media exchange (continuous inhibition).
Cultures were maintained for at least 13 days with a 50% media exchange every other day beginning on culture day 2. Cell counts and viability were monitored every other day. […]

[7] = tested on: T-cells from three healthy donors; experiment: Post-stimulation CD4+ and CD8+ activation markers by flow cytometry; type: cell-based, human; conditions: 50 ng/ml OKT3 vs no OKT3, 48 hours, CD38, CD39, CD134, CD137, CD69, CD90
Experimental: Specific markers of activation on the CD4+ and CD8+ cell populations were measured using flow cytometry over a time course of 3-48 hours. Specifically, the following markers were assessed: CD38 and CD39 (FIG. 12A and FIG. 13A), CD134 and CD137 (FIG. 12B and FIG. 13B), and CD69 and CD90 (FIG. 12C and FIG. 13C).

[8] = tested on: cells processed from melanoma tumor fragments; experiment: Anti-CD3 stimulation on expansion of tumor-derived cells; type: cell-based, human; conditions: presence or absence of 50 ng/mL OKT3; 14-31 days
Experimental: Cells processed from melanoma tumor fragments as described in Examples 1 and 2, were cultured in the presence or absence of 50 ng/mL OKT3, a human anti-CD3 monoclonal antibody. Cell cultures were carried out to between 14 and 31 days, such as between 14 and 21 days, in either a conventional 6-well plate or a gas permeable culture plate with RPMI or OpTmizer media. […] About 50% of cellular media was exchanged every other day beginning on the 5th day of culture as described previously. Cells were then counted using the NC-200 Automated Cell Counter (Chemometec).

[9] = cytokine plus 300 IU/mL IL-2 vs IL-2 alone
[10] = on CD3+, CD4+ and CD8+ T cells, higher concentrations

With Pembrolizumab: anti-PD1 antibody the PD1 expression ([1]; on CD4 T cells) was “decreased PD1 expression” and the viable cell counts [2] was “consistently higher viable cell counts than the DMSO treatment control”.
In the case of IL-15: recombinant cytokine, the “percent naïve and central memory T cells at Day 6” value ([3]; cytokine plus 300 IU/mL IL-2) is reported as “measured increase in the percent naïve and central memory T cells”, the “CD3+ cells/mL on Day 6” value [3, 9] is reported as “increase in CD3+ cells/mL on Day 6” and the “dose response of cell number” value ([2]; 62.5 IU/ml-1000 IU/ml) is reported as “dose dependent response, wherein cell number increased with increasing concentration”.
In the case of IL-21: recombinant cytokine, the “percent naïve and central memory T cells at Day 6” value ([3]; cytokine plus 300 IU/mL IL-2) is reported as “measured increase in the percent naïve and central memory T cells” and the “CD3+ cells/mL on Day 6” value [3, 9] is reported as “increase in CD3+ cells/mL on Day 6”.
For Oxelumab: anti-OX40L antibody, the “percent naïve and central memory T cells at Day 6” value ([3]; antibody plus IL-2 vs IL-2 alone, MK-1248 at highest concentration tested) was “little effect on the percent of naïve and central memory T cells”, the “CD3+ cells/mL on Day 6” value ([3]; highest concentration tested, 50 μg/mL, vs IL-2 alone) was “increase in CD3+ cells/mL on Day 6” and the viable cell counts [2] was “consistently higher viable cell counts than the DMSO treatment control”.
For `COC(=O)C[C@H](NC(=O)[C@H](C)NC(=O)[C@@H](NC(=O)OCc1ccccc1)C(C)C)C(=O)CF` [Z-VAD-FMK, carbobenzoxy-valyl-alanyl-aspartyl-[O-methyl]-fluoromethylketone] (Cbz-Val-Ala-Asp(OMe)-CH2F), the “number of CD3+ cells/mL on Day 6” value ([3]; concentrations higher than 0.2 μg/mL, vs IL-2 alone) was “substantially increased the number of CD3+ cells/mL on Day 6”, the “percent of naïve and central memory T cells” value ([3]; vs cultures expanded just with IL-2) was “had no effect on the percent of naïve and central memory T cells” and the “total viable cell number and viability” value ([4]; inhibitor continuous, listed as caspase inhibitor) was “outperformed the other conditions; also recorded: outperforming the transient condition”. For the same molecule, the “total viable cell number and viability” value ([4]; inhibitor transient) was “outperformed the other conditions”, the cell viability ([5]; SCS culture, 2 μM) was “Cell viability was similarly high” and the “outgrowth of T cells” value ([5]; SCS culture, 2 μM) was “outgrowth of T cells was not observed for the SCS conditions”. The cell viability ([5]; tumor fragment-derived culture, 2 μM) was “cell viability for this condition was also high”, the “outgrowth of cells (fold expansion, total viable cells)” value ([5]; tumor fragment-derived culture, 2 μM replenished at each media exchange) was “outgrowth of cells was superior in the tumor fragment-derived condition containing the pan-caspase inhibitor” and the “cell growth (total cell number)” value ([6]; continuous inhibition (replenished each media exchange)) was “showed the greatest cell growth across donors”. For the same molecule, the “cell growth (total cell number)” value ([6]; transient treatment (day 0 only)) was “grew similarly” and the viable cell counts [2] was “consistently higher viable cell counts than the DMSO treatment control”.
In the case of “Urelumab: an agonist CD137 receptor antibody”, the 41BB expression ([1]; on CD4 T cells and CD8+ T cells) is reported as “promoted 41BB expression”.
“Varlilumab: an agonist anti-CD27 antibody” was tested, and the 41BB expression [1, 10] was “promoted 41BB and CD107a expression” and the CD107a expression [1, 10] was “promoted 41BB and CD107a expression”.
For “OKT3: a human anti-CD3 monoclonal antibody”, the “upregulation of activation markers on CD8+ T cells” value ([7]; highest for CD38, CD134, CD69) was “all assessed markers were upregulated to some extent”, the “upregulation of activation markers on CD4+ T cells” value ([7]; highest for CD38, CD137, CD69) was “all assessed markers were upregulated to some extent” and the “total cell number and fold expansion” value [8] was “supported T cell expansion, but did not substantially impact total cell number; also recorded: observed to be largely similar”.
